According to ChEMBL document CHEMBL1201862, “PubChem BioAssay data set” (2004):
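Following 48 hours of exposure in 96-well plates, responses at five concentrations were used to interpolate endpoints linearly. Abbreviation: GI50, concentration required for 50% inhibition of growth.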 Calls of active or inactive are those of the source. Rule as the data show it: active = GI50 up to about 1.1 µM and inactive = higher.

Legend:
Assay in all cases: NCI tumour cell line growth inhibition, 48 h
786-0 = system: 786-0
DU-145 = system: DU-145
HCT-15 = system: HCT-15
UACC-257 = system: UACC-257
A498 = system: A498
SNB-75 = system: SNB-75
Malme-3M = system: Malme-3M
U-251 = system: U-251
HL-60 = system: HL-60
MCF7 = system: MCF7
A549 = system: A549
SF-295 = system: SF-295
CAKI-1 = system: CAKI-1
CCRF-CEM = system: CCRF-CEM
SNB-19 = system: SNB-19
OVCAR-4 = system: OVCAR-4
MDA-MB-435 = system: MDA-MB-435
TK-10 = system: TK-10
OVCAR-3 = system: OVCAR-3
SR = system: SR

Compound	GI50 (786-0)	GI50 (DU-145)	GI50 (HCT-15) [µM]	GI50 (UACC-257)	GI50 (A498)	GI50 (SNB-75)	GI50 (Malme-3M)	GI50 (U-251)	GI50 (HL-60)	GI50 (MCF7)	GI50 (A549)	GI50 (SF-295)	GI50 (CAKI-1)	GI50 (CCRF-CEM)	GI50 (SNB-19)	GI50 (OVCAR-4)	GI50 (MDA-MB-435)	GI50 (TK-10)	GI50 (OVCAR-3)	GI50 (SR)
Cc1ccc(N(Cc2ccccc2)Cc2ccccc2)cc1	73.3 µM (inactive)	> 100 µM (inactive)	40.9	42.4 µM (inactive)	61.4 µM (inactive)	68.7 µM (inactive)	17 µM (inactive)	65.9 µM (inactive)	51.4 µM (inactive)	37.8 µM (inactive)	36.9 µM (inactive)	35.1 µM (inactive)	47.9 µM (inactive)	28 µM (inactive)	> 100 µM (inactive)	32.7 µM (inactive)	37.2 µM (inactive)	> 100 µM (inactive)	32.8 µM (inactive)	–
[N-]=[N+]=Nc1c(N2CCOCC2)c(Cl)nc2ccccc12	86.7 µM (inactive)	–	46.6	27.9 µM (inactive)	47.9 µM (inactive)	< 0.01 µM (active)	41.5 µM (inactive)	82.6 µM (inactive)	66.1 µM (inactive)	–	51.2 µM (inactive)	60.5 µM (inactive)	60.5 µM (inactive)	> 100 µM (inactive)	> 100 µM (inactive)	33.7 µM (inactive)	42.5 µM (inactive)	61.2 µM (inactive)	43.5 µM (inactive)	92.3 µM (inactive)
CC(O)c1c2c(cc3c1CC1(C3)Cc3cc4c(c(C(C)O)c3C1)CCC4)CCC2 (stereo unspecified)	14.8 µM (inactive)	–	14.8	13.9 µM (inactive)	14.9 µM (inactive)	–	15.9 µM (inactive)	14.1 µM (inactive)	4.76 µM (inactive)	11.8 µM (inactive)	13.6 µM (inactive)	21 µM (inactive)	–	5.82 µM (inactive)	–	2.86 µM (inactive)	15.8 µM (inactive)	27.7 µM (inactive)	12.4 µM (inactive)	8.38 µM (inactive)
O=C1Nc2cc(Cl)ccc2C(=O)N2CCC[C@@H]12	> 100 µM (inactive)	> 100 µM (inactive)	> 100	> 100 µM (inactive)	> 100 µM (inactive)	> 100 µM (inactive)	> 100 µM (inactive)	> 100 µM (inactive)	> 100 µM (inactive)	> 100 µM (inactive)	> 100 µM (inactive)	> 100 µM (inactive)	> 100 µM (inactive)	> 100 µM (inactive)	> 100 µM (inactive)	> 100 µM (inactive)	> 100 µM (inactive)	> 100 µM (inactive)	–	–
O=C1/C(=C/c2ccco2)N=C2Sc3c([nH]cnc3=O)N12	> 100 µM (inactive)	> 100 µM (inactive)	> 100	> 100 µM (inactive)	> 100 µM (inactive)	> 100 µM (inactive)	> 100 µM (inactive)	> 100 µM (inactive)	> 100 µM (inactive)	> 100 µM (inactive)	> 100 µM (inactive)	> 100 µM (inactive)	> 100 µM (inactive)	> 100 µM (inactive)	> 100 µM (inactive)	44.4 µM (inactive)	> 100 µM (inactive)	> 100 µM (inactive)	> 100 µM (inactive)	–
CC1OC(n2cc(F)c(=O)[nH]c2=O)C=CC1O (stereo unspecified)	> 100 µM (inactive)	–	> 100	> 100 µM (inactive)	> 100 µM (inactive)	> 100 µM (inactive)	> 100 µM (inactive)	> 100 µM (inactive)	37.2 µM (inactive)	–	> 100 µM (inactive)	> 100 µM (inactive)	> 100 µM (inactive)	> 51.3 µM (inactive)	> 100 µM (inactive)	> 100 µM (inactive)	–	> 100 µM (inactive)	> 100 µM (inactive)	> 100 µM (inactive)
NC1N=C(c2ccc(Cl)cc2)C2=C(N1)c1ccccc1CC2 (stereo unspecified)	13.2 µM (inactive)	52.4 µM (inactive)	3.58	> 67.3 µM (inactive)	49.5 µM (inactive)	1.71 µM (inactive)	10.3 µM (inactive)	25.6 µM (inactive)	2.81 µM (inactive)	6.55 µM (inactive)	20.3 µM (inactive)	22.3 µM (inactive)	76.4 µM (inactive)	3.93 µM (inactive)	> 68.5 µM (inactive)	13.4 µM (inactive)	2.62 µM (inactive)	48.2 µM (inactive)	16.7 µM (inactive)	–
